Source: patent US20260007758A1, “SO[…]-2 RECEPTOR (SST2R) NON-PEPTIDE DRUG CONJUGATES AND USES THEREOF” (Crinetics Pharmaceuticals, Inc., priority 2024, published 2026)

Legend:
Format in all cases: cell-based
[1] = test system: NCI-H524 human small cell lung cancer cells; assay: H524 assay: inhibition of cell proliferation (CellTiter Glo); conditions: 2 h treatment, washout, additional 70 h incubation
Description: NDCs of the present invention were assessed in an in vitro assay evaluating the inhibition of cell proliferation. NCI-H524 (ATCC) human small cell lung cancer cells were plated in 96-well V-bottom plates (Costar) at a concentration of 5,000 cells/well. 24 h later, the cells were treated for 2 h with a NDC. NDC starting dose was 1 uM and two-fold serial dilutions were done for a total of 11 points. After 2 h of treatment, cells were spun down, and the drug-containing media was removed, and fresh complete media was added and used to resuspend the cells, which were spun again. After removal of the media, the cells were resuspended in complete medium and incubated for an additional 70 h. Cell proliferation was assessed using the CellTiter Glo Assay according to the standard protocol (Promega). Luminescence was measured using a TECAN plate reader. Percent proliferation inhibition was calculated using the following formula: % inhibition=(Luminescence Control−Luminescence Treatment)/Luminescence Control*100. IC50 curves were generated using the nonlinear regression analysis (four-parameter) with GraphPad Prism 9.

SST2 = target: T1, SST2 (Homo sapiens, UniProt P30874); assay: PathHunter CHO-K1 SST2 Internalization Assay; conditions: PathHunter CHO-K1 SST2 cells; 90 min at 37 C; luminescence; read-out: Internalization EC50
T1 construct: host or cells: PathHunter CHO-K1 SST2 cells
T1 sequence (P30874 whole entry): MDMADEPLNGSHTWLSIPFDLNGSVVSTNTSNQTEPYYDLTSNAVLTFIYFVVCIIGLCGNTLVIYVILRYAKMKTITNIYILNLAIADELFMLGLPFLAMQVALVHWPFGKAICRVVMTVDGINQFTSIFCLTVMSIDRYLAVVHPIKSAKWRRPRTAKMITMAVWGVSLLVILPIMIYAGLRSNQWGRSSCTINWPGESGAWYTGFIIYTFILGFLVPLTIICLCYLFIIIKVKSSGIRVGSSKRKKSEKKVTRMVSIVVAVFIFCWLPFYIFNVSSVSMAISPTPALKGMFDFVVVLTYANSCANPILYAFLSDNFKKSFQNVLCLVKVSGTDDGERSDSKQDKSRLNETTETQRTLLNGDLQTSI
Description: NDCs of the present invention were assessed in vitro using the human PathHunter CHO-K1 SST2 β-arrestin2 and PathHunter CHO-K1 SST2 Internalization Assays from DiscoverX. The CHO-K cells were seeded in 20 μLs of cell culture medium in a white-walled 384 well tissue culture-compatible plate at a density of 2500 cells/well. After a 48-hour incubation, cells were treated with 5 μLs of a 1:3 serially diluted SST2 NDC prepared at 5× concentration with a final top compound concentration of 10 uM for 90 min at 37 C and in 5% CO2. 11 dilutions were tested as well as one treatment that was compound free. After incubation, the media containing treatments were discarded and 20 μL of a working solution of Beta-Glo from Promega Beta-Go Assay System was added to each well. The plate was then incubated for 60 min at room temperature in the dark. Luminescence was measured using a Tecan plate reader. IC50 curves were generated using the nonlinear regression analysis (four-parameters) with GraphPad Prism 9. Results were the average of duplicates and are corrected for background.

[2] = target: T2, human somatostatin receptor subtype 2 (Homo sapiens, UniProt P30874); assay: Functional assay for SSTR2 agonists (HTRF cAMP); conditions: CHO-K1 cells stably expressing human SST2; NKH477-stimulated cAMP; 20 min at 37 C; read-out: hSST2 cAMP Avg EC50
T2 construct: expressed in transfected cells
T2 sequence (P30874 whole entry): as above
Text: General overview: All five SSTR subtypes are Gi coupled G-protein coupled receptors (GPCRs) that lead to decreases in intracellular cyclic AMP (cAMP) when activated by an agonist. Therefore, measurement of intracellular cAMP levels can be used to assess whether compounds of the invention are agonists of SSTR subtypes (John Kelly, Troy Stevens, W. Joseph Thompson, and Roland Seifert, Current Protocols in Pharmacology. 2005, 2.2.1-2.2). One example of an intracellular cAMP assay is described below.
Four days prior to the assay, 2,000 Chinese hamster ovary cells (CHO-K1, ATCC #CCL-61) stably expressing the human somatostatin receptor subtype 2 are plated in each well of a 96-well tissue culture-treated plate in Ham's F12 growth media (ThermoFisher #10-080-CM) supplemented with 10% donor bovine serum (Gemini Bio-Products #100-506), 100 U/mL penicillin; 100 ug/mL streptomycin, 2 mM L-glutamine (Gemini Bio-Products #400-110) and 0.2 mg/mL hygromycin B (GoldBio #31282-04-9). The cells are cultured at 37° C., 5% CO2 and 95% humidity. cAMP is measured with HTRF dynamic cAMP assay (Cisbio. #62AM5PEJ) per manufacturer's instructions. […] The cells are incubated for 20 minutes at 37° C. (the final concentration of the compounds of the invention are typically 0-10,000 nM). The cells are treated with 50 μL of lysis buffer (HRTF cAMP kit, Cisbio) and incubated at room temperature for 30 minutes with rotary shaking at 600 rpm, and then diluted with 150 μL of stimulation buffer and shaken for an additional five minutes at 300 rpm. The lysate is transferred to 384-well plates and incubated for 1-24 hours at room temperature, and cAMP accumulation is detected by d2-labeled cAMP and Anti-cAMP-Cryptate. The time-resolved fluorescent signal is read using a m1000 Pro (Tecan) or CLARIOStar (BMG Labtech) microplate reader, where the samples are excited with light at 340 nm and emission light is measured at 620 nm and 665 nm. The data is expressed as a calculation of the fluorescence ratio (665 nm/620 nm). The intracellular cAMP concentrations are calculated by regression to a standard curve and are plotted vs, the concentration of the compounds of the invention. The EC50 of the compounds are calculated using standard methods. All data manipulations are in GraphPad Prism v9 (GraphPad, San Diego, CA).

Row | Compound | EC50 [1] [nM] | EC50 (SST2) [nM] | EC50 [2] [nM]
1 | CC[C@H](C)[C@@H]([C@@H](CC(=O)N1CCC[C@H]1[C@H](OC)[C@@H](C)C(=O)N[C@H](C)[C@@H](O)c1ccccc1)OC)N(C)C(=O)[C@@H](NC(=O)[C@H](C(C)C)N(C)C(=O)OCc1ccc(NC(=O)[C@H](C)NC(=O)[C@@H](NC(=O)CCOCCC(=O)NCCNc2ncc(-c3cc(C)cc(F)c3)c(N3CC[C@H]4NCCO[C@@H]4C3)c2-c2nc3ccc(Cl)cc3[nH]2)C(C)C)c(O[C@@H]2O[C@H](C(=O)O)[C@@H](O)[C@H](O)[C@H]2O)c1)C(C)C [Compound 113] | 2000 | 1300 | 110
2 | CC[C@H](C)[C@@H]([C@@H](CC(=O)N1CCC[C@H]1[C@H](OC)[C@@H](C)C(=O)N[C@H](C)[C@@H](O)c1ccccc1)OC)N(C)C(=O)[C@@H](NC(=O)[C@H](C(C)C)N(C)C(=O)OCc1ccc(NC(=O)[C@H](CCCNC(N)=O)NC(=O)[C@@H](NC(=O)CCOCCC(=O)NCCNc2ncc(-c3cc(C)cc(F)c3)c(N3CCC(N)CC3)c2-c2nc3ccc(Cl)cc3[nH]2)C(C)C)c(OC)c1)C(C)C [Compound 11] | 14 | 10 | 0.33
3 | CC[C@H](C)[C@@H]([C@@H](CC(=O)N1CCC[C@H]1[C@H](OC)[C@@H](C)C(=O)N[C@H](C)[C@@H](O)c1ccccc1)OC)N(C)C(=O)[C@@H](NC(=O)[C@H](C(C)C)N(C)C(=O)OCc1ccc(NC(=O)[C@H](CCCNC(N)=O)NC(=O)[C@@H](NC(=O)c2cc(NC(=O)CCOCCn3cc(CCC(=O)NCCNc4ncc(-c5cc(C)cc(F)c5)c(N5CCC(N)CC5)c4-c4nc5ccc(Cl)cc5[nH]4)nn3)cc(C(=O)NCC(=O)O)c2)C(C)C)cc1)C(C)C [Compound 155] | 300 | 10 | 0.44
4 | CC[C@H](C)[C@@H]([C@@H](CC(=O)N1CCC[C@H]1[C@H](OC)[C@@H](C)C(=O)N[C@H](C)[C@@H](O)c1ccccc1)OC)N(C)C(=O)[C@@H](NC(=O)[C@H](C(C)C)N(C)C(=O)OCc1ccc(NC(=O)[C@H](CCCNC(N)=O)NC(=O)[C@@H](NC(=O)C[C@@H](N)C(=O)NCCOCCC(=O)NCCNc2ncc(-c3cc(C)cc(F)c3)c(N3CCC(N)CC3)c2-c2nc3ccc(Cl)cc3[nH]2)C(C)C)c(OCC(=O)O)c1)C(C)C [Compound 22] | 22 | 17 | 0.17
5 | CC[C@H](C)[C@@H]([C@@H](CC(=O)N1CCC[C@H]1[C@H](OC)[C@@H](C)C(=O)N[C@H](C)[C@@H](O)c1ccccc1)OC)N(C)C(=O)[C@@H](NC(=O)[C@H](C(C)C)N(C)C(=O)OCc1ccc(NC(=O)[C@H](CCCNC(N)=O)NC(=O)[C@@H](NC(=O)Cn2cc(CCOCCC(=O)NCCNc3ncc(-c4cc(C)cc(F)c4)c(N4CCC(N)CC4)c3-c3nc4cc(Cl)ccc4[nH]3)nn2)C(C)C)c(O[C@@H]2O[C@H](C(=O)N3CCNCC3)[C@@H](O)[C@H](O)[C@H]2O)c1)C(C)C [Compound 238] | 2.9 | 4.7 | 0.12
6 | CC[C@H](C)[C@@H]([C@@H](CC(=O)N1CCC[C@H]1[C@H](OC)[C@@H](C)C(=O)N[C@H](C)[C@@H](O)c1ccccc1)OC)N(C)C(=O)[C@@H](NC(=O)[C@H](C(C)C)N(C)C(=O)OCc1ccc(NC(=O)[C@H](CCCNC(N)=O)NC(=O)[C@@H](NC(=O)c2cc(NCCOCCC(=O)NCCNc3ncc(-c4cc(C)cc(F)c4)c(N4CCC(N)CC4)c3-c3nc4ccc(Cl)cc4[nH]3)cc(C(=O)NCC(N)=O)c2)C(C)C)cc1)C(C)C [Compound 186] | 470 | 2.7 | 0.26
7 | CC[C@H](C)[C@@H]([C@@H](CC(=O)N1CCC[C@H]1[C@H](OC)[C@@H](C)C(=O)N[C@H](C)[C@@H](O)c1ccccc1)OC)N(C)C(=O)[C@@H](NC(=O)[C@H](C(C)C)N(C)C(=O)OCc1ccc(NC(=O)[C@H](CCCNC(N)=O)NC(=O)[C@@H](NC(=O)CN(C)C(=O)CCOCCC(=O)NCCNc2ncc(-c3cc(C)cc(F)c3)c(N3CCC(N)CC3)c2-c2nc3ccc(Cl)cc3[nH]2)C(C)C)c(O[C@@H]2O[C@H](C(=O)O)[C@@H](O)[C@H](O)[C@H]2O)c1)C(C)C [Compound 118] | 22 | 9.3 | 0.24
8 | CC[C@H](C)[C@@H]([C@@H](CC(=O)N1CCC[C@H]1[C@H](OC)[C@@H](C)C(=O)N[C@H](C)[C@@H](O)c1ccccc1)OC)N(C)C(=O)[C@@H](NC(=O)[C@H](C(C)C)N(C)C(=O)OCc1ccc(NC(=O)[C@H](CCCNC(N)=O)NC(=O)[C@@H](NC(=O)CCOCCC(=O)NCCNc2ncc(-c3cc(C)cc(F)c3)c(N3CCC(N)CC3)c2-c2nc3ccc(Cl)cc3[nH]2)C(C)C)cc1C(=O)NOC)C(C)C [Compound 87] | 600 | 4.6 | 0.1
9 | CC[C@H](C)[C@@H]([C@@H](CC(=O)N1CCC[C@H]1[C@H](OC)[C@@H](C)C(=O)N[C@H](C)[C@@H](O)c1ccccc1)OC)N(C)C(=O)[C@@H](NC(=O)[C@H](C(C)C)N(C)C(=O)OCc1ccc(NC(=O)[C@H](CCCNC(N)=O)NC(=O)[C@@H](NC(=O)c2cc(NCCOCCC(=O)NCCNc3ncc(-c4cc(C)cc(F)c4)c(N4CCC(N)CC4)c3-c3nc4ccc(Cl)cc4[nH]3)cc(C(=O)NCCN(CC(=O)O)CC(=O)O)c2)C(C)C)cc1C(=O)NCCN)C(C)C [Compound 58] | 910 | 14 | 0.26
10 | CC[C@H](C)[C@@H]([C@@H](CC(=O)N1CCCC1[C@H](OC)[C@@H](C)C(=O)N[C@H](C)[C@@H](O)c1ccccc1)OC)N(C)C(=O)[C@@H](NC(=O)[C@H](C(C)C)N(C)C(=O)OCc1ccc(O[C@@H]2O[C@H](C(=O)O)[C@@H](O)[C@H](O)[C@H]2O)c(NC(=O)[C@H](C)NC(=O)[C@@H](NC(=O)CCOCCC(=O)NCCNc2ncc(-c3cc(C)cc(F)c3)c(N3CCC(N)CC3)c2-c2nc3ccc(Cl)cc3[nH]2)C(C)C)c1)C(C)C (stereo partly drawn) [Compound 249] | 9.8 | 4.5 | 0.086
11 | CC[C@H](C)[C@@H]([C@@H](CC(=O)N1CCC[C@H]1[C@H](OC)[C@@H](C)C(=O)N[C@H](C)[C@@H](O)c1ccccc1)OC)N(C)C(=O)[C@@H](NC(=O)[C@H](C(C)C)N(C)C(=O)OCc1ccc(NC(=O)[C@H](CCCNC(N)=O)NC(=O)[C@@H](NC(=O)c2cc(NCCOCCC(=O)NCCNc3ncc(-c4cc(C)cc(F)c4)c(N4CCC(N)CC4)c3-c3nc4ccc(Cl)cc4[nH]3)cc(C(=O)NCCCC(=O)O)c2)C(C)C)cc1)C(C)C [Compound 146] | 62 | 9.9 | 0.29
12 | CC[C@H](C)[C@@H]([C@@H](CC(=O)N1CCC[C@H]1[C@H](OC)[C@@H](C)C(=O)N[C@H](C)[C@@H](O)c1ccccc1)OC)N(C)C(=O)[C@@H](NC(=O)[C@H](C(C)C)N(C)C(=O)OCc1ccc(NC(=O)[C@H](CCCNC(N)=O)NC(=O)[C@@H](NC(=O)C[C@@H](N)C(=O)NCCOCCOCCOCCOCCC(=O)NCCNc2ncc(-c3cc(C)cc(F)c3)c(N3CCC(N)CC3)c2-c2nc3ccc(Cl)cc3[nH]2)C(C)C)c(OCC(=O)O)c1)C(C)C [Compound 23] | 32 | 20 | 0.29
